Results taken from patent US9850283B2, “Macrocyclic inhibitors of the PD-1/PD-L1 and CD80(B7-1)/PD-L1 protein/protein interactions” (BRISTOL-MYERS SQUIBB COMPANY, priority 2013, dated 2017).
pIC50: −log10 of the molar value. Read-outs that look alike come from different tables or passages of the source. Positions of bridges follow the written chain, without caps; N, C: chain ends. Non-standard residues stand in square brackets, D forms with d. Residues, ends and D or L forms follow the SMILES beside them. ξ: configuration not given here. Ala(benzothiazol-2-yl) = N[C@@H](Cc1nc2ccccc2s1)C(=O)O; Phe(3,4,5-F3) = N[C@@H](Cc1cc(F)c(F)c(F)c1)C(=O)O; Phe(3-Cl) = N[C@@H](Cc1cccc(Cl)c1)C(=O)O; Dopa = N[C@@H](Cc1ccc(O)c(O)c1)C(=O)O; Bta = N[C@@H](Cc1csc2ccccc12)C(=O)O; Hyp = O=C(O)[C@@H]1C[C@@H](O)CN1; NMeF = CN[C@@H](Cc1ccccc1)C(=O)O; 4Pal = N[C@@H](Cc1ccncc1)C(=O)O; dNMeNle = CCCC[C@@H](NC)C(=O)O; NMeNle = CCCC[C@H](NC)C(=O)O; NMeM = CN[C@@H](CCSC)C(=O)O; NMeA = CN[C@@H](C)C(=O)O; Orn = NCCC[C@H](N)C(=O)O; Dab = NCC[C@H](N)C(=O)O; Dap = NC[C@H](N)C(=O)O; ξP = O=C(O)C1CCCN1; ξC = NC(CS)C(=O)O; Sar = CNCC(=O)O

Columns and labels:
[1] = target: T1, LK35.2-hPD-L1 cells / PE-labeled PD-1-Ig (Homo sapiens, UniProt Q9NZQ7); test: LK35.2-hPD-L1 cell binding high-content screening assay; type: cell-based; conditions: cluster symbol, read-out: CBA IC50 cluster
T1 construct: expressed in transfected cells; host or cells: LK35.2 mouse B cell line
Outline: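 Readout: high-content imaging of PE-PD-1-Ig bound to LK35.2-hPD-L1 cells. Cells plated overnight (RPMI/10% FCS); compound + 1 nM PE-PD-1-Ig, 1 h, 37 °C; 3× dPBS wash before imaging.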

Human PD-L1/PD-1 = target: T2, Human PD-L1/PD-1 (Homo sapiens, UniProt Q9NZQ7); test: HTRF PD-1-Ig/PD-L1-His binding assay (human PD-L1); conditions: cluster symbol; read-out: HTRF IC50 cluster
T2 construct: made in house; host or cells: HEK293T
Outline: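 The time-resolved fluorescence signal comes from Eu-cryptate anti-Ig (1 nM) and APC anti-His (20 nM) antibodies bound to a PD-1-Ig/PD-L1-His complex. Both partners lack transmembrane regions.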

[2] = cell binding assay, cell line not given
[3] = cell line of CBA not given (LK35.2-hPD-L1 or 293T-hPD-L1)

T1 sequence (Q9NZQ7 19-290): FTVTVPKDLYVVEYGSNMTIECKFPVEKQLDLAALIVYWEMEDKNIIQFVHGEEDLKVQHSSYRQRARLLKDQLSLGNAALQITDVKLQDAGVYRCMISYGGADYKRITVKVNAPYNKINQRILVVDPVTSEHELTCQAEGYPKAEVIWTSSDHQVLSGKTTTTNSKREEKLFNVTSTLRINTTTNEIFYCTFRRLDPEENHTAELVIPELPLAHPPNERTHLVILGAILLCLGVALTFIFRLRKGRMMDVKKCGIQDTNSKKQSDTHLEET
T2 sequence (Q9NZQ7 with tags, fused parts or gaps): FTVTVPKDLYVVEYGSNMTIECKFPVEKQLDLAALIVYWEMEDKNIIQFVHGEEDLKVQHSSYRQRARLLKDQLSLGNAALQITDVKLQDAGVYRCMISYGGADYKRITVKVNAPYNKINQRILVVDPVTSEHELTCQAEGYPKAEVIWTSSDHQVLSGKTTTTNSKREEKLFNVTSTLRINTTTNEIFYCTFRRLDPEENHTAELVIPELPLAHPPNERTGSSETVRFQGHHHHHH

CCCC[C@H]1C(=O)N(C)CC(=O)N[C@@H](CC(=O)O)C(=O)N[C@@H](C(C)C)C(=O)N(C)[C@@H](Cc2ccccc2)C(=O)N[C@@H](Cc2ccc(O)cc2)C(=O)N(C)CC(=O)N[C@@H](Cc2c[nH]c3ccccc23)C(=O)N[C@@H](Cc2ccc(O)c(O)c2)C(=O)N[C@@H](CC(C)C)C(=O)N[C@H](C(=O)NCC(N)=O)CSCC(=O)N[C@@H](Cc2cc(F)c(F)c(F)c2)C(=O)N(C)[C@@H](Cc2ccccc2)C(=O)N1C [Example 3609] ({CH2CO}-[Phe(3,4,5-F3)][NMeF][NMeNle][Sar]DV[NMeF]Y[Sar]W[Dopa]LCG-NH2; thioether N-13)
pIC50 [1, 2]: 8.33 to 9.80
pIC50 (Human PD-L1/PD-1): 8.17 to 9.41

CCCC[C@H]1C(=O)N(C)[C@@H](CCSC)C(=O)N[C@@H](CCCNC(=N)N)C(=O)NC(C(=O)NCC(N)=O)CSCC(=O)N[C@@H](Cc2ccc(O)cc2)C(=O)N(C)[C@@H](C)C(=O)N[C@@H](CC(N)=O)C(=O)N2CCC[C@H]2C(=O)N[C@@H](Cc2cnc[nH]2)C(=O)N[C@@H](CC(C)C)C(=O)N2CCC[C@H]2C(=O)N[C@@H](Cc2c[nH]c3ccccc23)C(=O)N[C@@H](CO)C(=O)N[C@@H](Cc2csc3ccccc23)C(=O)N1C (stereo partly shown) [Example 9022] ({CH2CO}-Y[NMeA]NPHLPWS[Bta][NMeNle][NMeM]R[ξC]G-NH2; thioether N-14)
pIC50 [1, 2]: 8.33 to 9.80
pIC50 (Human PD-L1/PD-1): 8.17 to 9.41

CCCC[C@H]1C(=O)N(C)[C@@H](CCCC)C(=O)NCC(=O)N[C@H](C(=O)NCC(N)=O)CSCC(=O)N[C@@H](Cc2ccc(O)cc2)C(=O)N(C)[C@@H](C)C(=O)N[C@@H](CC(N)=O)C(=O)N2CCC[C@H]2C(=O)N[C@@H](Cc2c[nH]cn2)C(=O)N[C@@H](CCC(N)=O)C(=O)N2C[C@H](O)C[C@H]2C(=O)N[C@@H](Cc2c[nH]c3ccccc23)C(=O)N[C@@H](CO)C(=O)N[C@@H](Cc2c[nH]c3ccccc23)C(=O)N1C [Example 5125] ({CH2CO}-Y[NMeA]NPHQ[Hyp]WSW[NMeNle][NMeNle]GCG-NH2; thioether N-14)
pIC50 [1, 2]: 7.14 to 8.32
pIC50 (Human PD-L1/PD-1): 8.17 to 9.41

CCCC[C@H]1C(=O)N(C)[C@@H](CCCC)C(=O)N[C@@H](CCCNC(=N)N)C(=O)N[C@H](C(=O)NCC(N)=O)CSCC(=O)N[C@@H](Cc2ccncc2)C(=O)N(C)[C@@H](C)C(=O)N[C@@H](CC(N)=O)C(=O)N2CCC[C@H]2C(=O)N[C@@H](Cc2cnc[nH]2)C(=O)N[C@@H](CC(C)C)C(=O)N2C[C@H](O)C[C@H]2C(=O)N[C@@H](Cc2c[nH]c3ccccc23)C(=O)N[C@@H](CO)C(=O)N[C@@H](Cc2c[nH]c3ccccc23)C(=O)N1C [Example 7029] ({CH2CO}-[4Pal][NMeA]NPHL[Hyp]WSW[NMeNle][NMeNle]RCG-NH2; thioether N-14)
pIC50 [1, 2]: 7.14 to 8.32
pIC50 (Human PD-L1/PD-1): < 7.52

CCCC[C@H]1C(=O)N(C)CC(=O)N[C@@H](CC(=O)O)C(=O)N[C@@H](C(C)C)C(=O)N[C@@H](Cc2cccc(Cl)c2)C(=O)N[C@@H](Cc2ccc(O)cc2)C(=O)N(C)CC(=O)N[C@@H](Cc2c[nH]c3ccccc23)C(=O)N[C@@H](Cc2ccc(O)cc2)C(=O)N[C@@H](CC(C)C)C(=O)N[C@H](C(=O)NCC(N)=O)CSCC(=O)N[C@@H](Cc2ccccc2)C(=O)N(C)[C@@H](Cc2ccccc2)C(=O)N1C [Example 3131] ({CH2CO}-F[NMeF][NMeNle][Sar]DV[Phe(3-Cl)]Y[Sar]WYLCG-NH2; thioether N-13)
pIC50 [1, 3]: < 7.13
pIC50 (Human PD-L1/PD-1): < 7.52

CCCC[C@@H]1C(=O)N(C)[C@H](CCCC)C(=O)N[C@@H](CCCN)C(=O)N[C@@H](C(=O)NCC(N)=O)CSCC(=O)N[C@@H](Cc2ccc(O)cc2)C(=O)N2CCCC2C(=O)N[C@H](CC(=O)O)C(=O)N2CCC[C@H]2C(=O)N[C@H](Cc2c[nH]cn2)C(=O)N[C@@H](CCC(=O)O)C(=O)N2CCCC2C(=O)N[C@H](Cc2c[nH]c3ccccc23)C(=O)N[C@@H](CCN)C(=O)N[C@@H](Cc2c[nH]c3ccccc23)C(=O)N1C (stereo partly shown) [Example 1216] ({CH2CO}-Y[ξP][dD]P[dH]E[ξP][dW][Dab]W[dNMeNle][dNMeNle][Orn][dC]G-NH2; thioether N-14)
pIC50 [1, 3]: < 7.13
pIC50 (Human PD-L1/PD-1): 7.52 to 8.17

CCCC[C@H]1C(=O)N(C)[C@@H](CCCC)C(=O)N[C@@H](CCCNC(=N)N)C(=O)N[C@H](C(=O)NCC(N)=O)CSCC(=O)N[C@@H](Cc2ccc(O)cc2)C(=O)N(C)[C@@H](C)C(=O)N[C@@H](CN)C(=O)N2CCC[C@H]2C(=O)N[C@@H](Cc2c[nH]cn2)C(=O)N[C@@H](CC(=O)O)C(=O)N2C[C@H](O)C[C@H]2C(=O)N[C@@H](Cc2c[nH]c3ccccc23)C(=O)N[C@@H](CO)C(=O)N[C@@H](Cc2c[nH]c3ccccc23)C(=O)N1C [Example 5134] ({CH2CO}-Y[NMeA][Dap]PHD[Hyp]WSW[NMeNle][NMeNle]RCG-NH2; thioether N-14)
pIC50 [1, 2]: 7.14 to 8.32
pIC50 (Human PD-L1/PD-1): 8.17 to 9.41

CCCC[C@H]1C(=O)N(C)[C@@H](CCCC)C(=O)N[C@@H](CC(N)=O)C(=O)N[C@H](C(=O)NCC(N)=O)CSCC(=O)N[C@@H](Cc2ccccc2)C(=O)N(C)[C@@H](C)C(=O)N[C@@H](CC(N)=O)C(=O)N2CCC[C@H]2C(=O)N[C@@H](Cc2cnc[nH]2)C(=O)N[C@@H](CC(C)C)C(=O)N(C)CC(=O)N[C@@H](Cc2c[nH]c3ccccc23)C(=O)N[C@@H](CO)C(=O)N[C@@H](Cc2c[nH]c3ccccc23)C(=O)N1C [Example 5014] ({CH2CO}-F[NMeA]NPHL[Sar]WSW[NMeNle][NMeNle]NCG-NH2; thioether N-14)
pIC50 [1, 2]: 7.14 to 8.32
pIC50 (Human PD-L1/PD-1): 7.52 to 8.17

CCCC[C@H]1C(=O)N(C)[C@@H](CCSC)C(=O)N[C@@H](CCCNC(=N)N)C(=O)NC(C(=O)NCC(N)=O)CSCC(=O)N[C@@H](Cc2ccc(O)cc2)C(=O)N(C)[C@@H](C)C(=O)N[C@@H](CC(N)=O)C(=O)N2CCC[C@H]2C(=O)N[C@@H](Cc2cnc[nH]2)C(=O)N[C@@H](CC(C)C)C(=O)N2C[C@H](O)C[C@H]2C(=O)N[C@@H](Cc2c[nH]c3ccccc23)C(=O)N[C@@H](CO)C(=O)N[C@@H](Cc2csc3ccccc23)C(=O)N1C (stereo partly shown) [Example 9023] ({CH2CO}-Y[NMeA]NPHL[Hyp]WS[Bta][NMeNle][NMeM]R[ξC]G-NH2; thioether N-14)
pIC50 [1, 2]: 8.33 to 9.80
pIC50 (Human PD-L1/PD-1): 8.17 to 9.41

CCCC[C@H]1C(=O)N(C)[C@@H](CCCC)C(=O)N[C@@H](CCCNC(=N)N)C(=O)NC(C(=O)NCC(N)=O)CSCC(=O)N[C@@H](Cc2ccc(O)cc2)C(=O)N(C)[C@@H](C)C(=O)N[C@@H](CC(N)=O)C(=O)N2CCC[C@H]2C(=O)N[C@@H](Cc2cnc[nH]2)C(=O)N[C@@H](CC(N)=O)C(=O)N2C[C@H](O)C[C@H]2C(=O)N[C@@H](Cc2c[nH]c3ccccc23)C(=O)N[C@@H](CO)C(=O)N[C@@H](Cc2c[nH]c3ccccc23)C(=O)N1C (stereo partly shown) [Example 9065] ({CH2CO}-Y[NMeA]NPHN[Hyp]WSW[NMeNle][NMeNle]R[ξC]G-NH2; thioether N-14)
pIC50 [1, 2]: 8.33 to 9.80
pIC50 (Human PD-L1/PD-1): 8.17 to 9.41

CCCC[C@H]1C(=O)N(C)CC(=O)N[C@@H](CC(=O)O)C(=O)N[C@@H](C(C)C)C(=O)N(C)[C@@H](Cc2ccccc2)C(=O)N[C@@H](Cc2ccc(O)cc2)C(=O)N(C)CC(=O)N[C@@H](Cc2c[nH]c3ccccc23)C(=O)N[C@@H](Cc2nc3ccccc3s2)C(=O)N[C@@H](CC(C)C)C(=O)N[C@H](C(=O)NCC(N)=O)CSCC(=O)N[C@@H](Cc2ccccc2)C(=O)N(C)[C@@H](Cc2ccccc2)C(=O)N1C [Example 3558] ({CH2CO}-F[NMeF][NMeNle][Sar]DV[NMeF]Y[Sar]W[Ala(benzothiazol-2-yl)]LCG-NH2; thioether N-13)
pIC50 [1, 2]: < 7.13
pIC50 (Human PD-L1/PD-1): < 7.52
